*1 amine or outer side, *2 acyl side, *3 side chain or, on linkers, in order; H or OH if unused. Where no end group is shown, it is not given here. [ ]: non-standard residue; d: D form. βAsp = O=C(O)[C@H](CC(=O)[*:2])N[*:1]
Tests used:
[1] = tested on: auto-antibodies in RA sera; assay: ELISA detection of auto-antibodies in sera on Thy-GA-peptide conjugate coated plates (Example 2); assay type: binding, human; conditions: sera diluted one-hundred fold; MTP coated with Thy-GA conjugate 10 μg/ml; absorbency at 450 nm
Source text: It was investigated whether auto-antibodies would recognise an Asn-315 derived septa-peptide and whether such auto-antibodies are a characteristic feature of rheumatoid arthritis. In order to carry out such investigations the IgG Fc Asn-315 derived (βL) septa-peptide Trp-Leu-Asp-β-Gly-Lys-Glu-Tyr, was manufactured synthetically. The peptide used was a preparation of linear (αL form) Trp-Leu-Asn-Gly-Lys-Glu-Tyr peptide heated to promote isomerisation by the following procedure. The peptide was dissolved in the buffer and heated for 4 hours at 90° C. to promote isomerisation and/or optical inversion. The resulting mix of isomerised (βL) optically inverted (αD and βD) and linear (αL) peptides were analysed by RP-HPLC using a 15-35% acetonitrile gradient in 0.1% TFA over 10 minutes with a flow rate of 1 ml/min, and the isomerisation status of the resulting peaks were studied by amino-acid analysis as described above. This peptide was dissolved at 5 mg/ml in 0.2 M Na-Phosphate pH 9.2. […]
0.5 ml thyroglobulin (30 mg/ml) in 0.1 M Na-phosphate buffer pH 8.0, was added drop-wise (over 2 minutes) and under constant mixing to 0.5 mL of the following solution: 10% GA, 40% H2O, 50% 0.2 M Na-Phosphate pH 8.0. […] The final volume was adjusted to 1500 μL and the protein concentration was determined by a BioRad protein assay performed according to the manufacturers instructions. […]

RA autoantibodies = assay: Competition ELISA: binding of RA autoantibodies to Thy-GA-Trp-Leu-*Asx-Gly-Lys-Glu-Tyr coated plates (Example 3); parameters: species or system human; conditions: competitor 50 μl of 50 μg/ml pre-incubated with serum 17 hours at 4° C.; 6 RA sera
Description: The Thy-GA-Trp-Leu-*Asx-Gly-Lys-Glu-Tyr conjugate was dissolved in PBS to a final concentration of 10 μg/ml, and 100 μL of this solution is pipetted into the wells of a micro-titre-plate (MTP, flat-well polysorb, Nunc). the plate was blocked as described (Bonde et al 1994), and serum samples diluted one-hundred fold in 10 mM Na-phosphate, 140 mM NaCl, 0.1% tween-20, 1% BSA pH 7.4 (assay buffer) were added. The MTP was left for one hour ±5 minutes on a rotary shaker at 20° C. The plates were washed five times in washing buffer (25 mM tris, 140 mM NaCl, 0.1% tween-20 pH 7.4), by a manual plate washer. One-hundred μL assay buffer containing a one-thousand fold dilution of Perxidase conjugated rabbit anti human λ-chains (Dako 063) and κ-chains (Dako 013) was added into each well. The MTP was again incubated for one hour ±5 minutes on a rotary mixer at 20° C. After 5 times washing, 100 μl of peroxidase substrate was added (3,3′,5,5′ tetramethylbenzidine dihydrochloride (TMB), Kirkegaard & Perry Laboratories, USA) and incubated for 15±2 minutes at room temperature (18-22° C.) in the dark. After addition of 0.18 M H2SO4, the absorbency was measured at 450 nm.
The experiment was carried out as follows. Serum samples were diluted one-hundred fold in 10 mM Na-phosphate, 140 mM NaCl, 0.1% tween-20, 1% BSA pH 7.4 (assay buffer). Two-hundred μl was added to 1.5 ml polypropylene tubes followed by addition of 50 μl of the following reagents dissolved in assay buffer at a concentration of 50 μg/ml:
The tubes were placed at 4° C. for 17 hours, and one-hundred μl of the mixture was added into MTP coated with Thy-GA-Trp-Leu-*Asx-Gly-Lys-Glu-Tyr conjugate. The assay was performed as described above under example 2.

[2] = tested on: auto-antibodies reactive with isomerised IgG Fc Asn-315 derived peptides; assay: Homogeneous RIA with 125I Thy-GA-Trp-Leu-*Asx-Gly-Lys-Glu-Tyr tracer, competition with peptides (Example 4); assay type: binding, human; conditions: highest concentration (10,000 ng/ml); P-0.01 by Student's T-Test
Description: A homogeneous RIA assay was developed for measurement of auto-antibodies with reactivity towards the isomerised form of the epitope Trp-Leu-Asn-Gly-Lys-Glu-Tyr derived from the IgG CH2 region. The assay was performed by incubating serum samples with ^125I Thy-GA-Trp-Leu-*Asx-Gly-Lys-Glu-Tyr overnight followed by precipitation of immune-complexes with protein A Sepharose.
Serum samples are diluted 1:200 in IMP buffer (IMP-buffer: 10 mm Na-Phosphate, pH 7.4, 140 mM NaCl, 5 mM EDTA, 0.5% Triton X-100, 0.1% BSA, 10 μg/ml soy-bean trypsin inhibitor). A Thy-GA-Trp-Leu-*Asx-Gly-Lys-Glu-Tyr conjugate is prepared as described in example 2 and iodinated with ^125I using the chloramine T protocol: 100 μg of the conjugate is diluted in 0.25 M Na2HPO4 to a total volume of 140 μl. 1.5 mCi Na^125I is added followed by 10 μL Chloramin-T (1 mg/ml, prepared freshly). The solution is vortexed for 30 seconds and 150 μL methionine (1 mg/ml) is added and immediately vortexed for 120 sec. The tracer is purified on size exclusion column (type: BIOSEP SEC S-2000, size: 300×7.80 mm) equilibrated with PBS containing 1% BSA Plow rate 1.0 ml/min. 500 μl fractions are collected and analysed in a scintillation counter (γ-counter). The fractions containing the tracer are pooled and used in the homogeneous RIA assay format. […]

Lewis rats [3] = assay: Induction of Experimental Autoimmune Encephalomyelitis by immunisation with MBP87-99 peptides (Example 7); assay type: in vivo, rat; conditions: for incidence of full-blown EAE (clinical score ≧2) / time of minimum weight / reduction of weight compared to PBS controls at minimum: Lewis rats, 200 μg peptide in CFA i.d.; for reduction of weight compared to PBS controls at minimum: 16 days post immunization
Source text: Experimental Autoimmune Encephalomyelitis (EAE) is a paralytical central nervous system (CNS) disease that can be induced readily in susceptible animals by immunisation with myelin proteins. In this experiment MBP87-99 peptides (VHFFKNIVTPRTP) in linear and isomerised forms were used for induction of clinical EAE in Lewis rats.
36 female Lewis (L haplotype, Harlan) rats, 8 weeks of age were used in the experiment.
The animals were randomly assigned to one of the following three treatment groups: 1) a group receiving Asn or isoAsp MBP87-99 peptides 2) a positive control group receiving whole guinea pig MBP, and a negative control receiving PBS. The study was performed in a blinded fashion where the observer was unaware of the treatment of the animal. Below a detailed description of the three treatment groups is provided.
(§1) 1) MBP87-99 Group: Peptides were dissolved in PBS (2 mg/ml). The peptide solution was mixed 1:1 with CFA supplemented with Mycobacterium tubercolosum H37RA, 4 mg/ml and mixed until an emulgate Wars formed. 200 μl emulgate was injected per rat, intra-dermally (i.d.) in the root of the tail (containing 200 μg MBP87-99 and 400 μg Mycobacterium).
The neurological function in immunised animals was evaluated daily. The evaluation was performed blinded by an observer unaware of the treatment groups and codes used in the experiment. This evaluation was performed daily, where the clinical signs of EAE were noted. The clinical signs of EAE were scored according to the following scale: grade 0=no clinical signs, grade 1=tail paralysis or unsteady gait, grade 2=hind leg paraparesis, grade 3=hind leg paralysis, grade 4=complete paralysis (tetraplegia) and grade 5 moribound state or death.
The weight of animals was also measured on a daily basis, as one of the earliest signs of EAE is a weight reduction. The weight of the MBP and peptide immunised animals was compared to the PBS control-group.

Lewis rats [4] = assay: Oral tolerance: feeding of isoAspartyl MBP87-99 before EAE induction (Example 8); assay type: in vivo, rat
Description: 32 female Lewis (L haplotype, Harlan) rats, 8 weeks of age were used in the experiment.
as §1, with “Animals were immunised with the iso-aspartyl form of MBP87-99.” for “1) MBP87-99 Group:”, “mg/).” for “mg/ml).”, “was” for “Wars”
The solutions containing the MBP87-99 isoAspartyl peptides are fed to the animals using a plastic syringe. Control animals are given PBS alone. The effect of the oral administered peptide preparations is investigated at two dosing regimens (one dose 7 days before immunisation vs. 3 doses at one-week intervals before the immunisation. Furthermore, the effect of the dose of orally administered *Asx containing peptide on disease expression is investigated. Rats are fed various amounts of the peptide listed above 14 days before the day of immunisation (day −14) and at day −7 and 0 (day of immunisation). The rats are given either 25, 100 or 500 μg of the peptide, and eight rats are allocated to each treatment regimen as indicated in the table below.
The disease progression was monitored daily by scoring the neurological function in immunized animals as described in example 7. In addition animals were weighed daily. In addition, the animals were sacrificed sixteen days after immunisation for histopathological examination. The rat brains and spinal cords were dissected, fixed in 70% ethanol, containing 5% acetic acid and 4% formalin, dehydrated and embedded in paraffin. Multiple 5 μm thick section were prepared from cerebellum, brain stem, spinal cord C1-4 and L1-6 and stained with hematoxylin-eosin. The frequency of inflammatory infiltrates were scored, using hematoxylineosin stained section, as follows: 0 No inflammation, 1 small number of perivascular infiltration present in the tissue, 2 inflammation with several perivascular infiltrates, and 3 several perivascular infiltrates and tissue necrosis. […]

Row | competition of binding of RA autoantibodies to Thy-GA-Trp-Leu-*Asx-Gly-Lys-Glu-Tyr coated plates (RA autoantibodies) | Substance | autoantibody reactivity of RA RF+ sera compared with RA RF- and control sera (ELISA signal) [1] | reactivity in competition RIA (percent inhibition by competing peptide), group basis [2] | incidence of full-blown EAE (clinical score ≧2) (Lewis rats [3]) [%] | time of minimum weight (Lewis rats [3]) [days post immunization] | reduction of weight compared to PBS controls at minimum (Lewis rats [3]) [%] | other results
1 |  | Thy-GA-Glu-Lys-Ala-His-*Asx-Gly-Gly-Arg: another irrelevant Thy-GA conjugate [reference compound] | no differentiation between the groups |  |  |  |  | 
2 | able to compete out the binding | Thy-GA-Trp-Leu-*Asx-Gly-Lys-Glu-Tyr: peptide coupled to thyroglobulin with glutaraldehyde |  | significant reactivity |  |  |  | 
3 | could be competed out | Trp-Leu-*Asx-Gly-Lys-Glu-Tyr | elevated autoantibody reactivity |  |  |  |  | 
4 | able to compete out the binding | Trp-Leu-Asp-β-Gly-Lys-Glu-Tyr |  | significant reactivity |  |  |  | 
5 |  | VHFFKNIVTPRTP [Asn MBP87-99, non-modified MBP87-99 peptide, reference compound] |  |  | 75 | 16 | 26 | fraction of animals affected by EAE with relatively mild symptoms (clinical score <3) (Lewis rats [3]; scale grade 0-5): one third
6 |  | isoAsp MBP87-99: MBP87-99 peptide (VHFFKNIVTPRTP) in isomerised form, Asn 92 giving iso-Asp (VHFFK[βAsp]IVTPRTP) |  |  | 25 | 16 | 19 | EAE induction (result in words) (Lewis rats [3]; onset, peak score day and score levels comparable to non-modified control peptide): induced significant EAE; clinical score of all animals affected with EAE (Lewis rats [3]; scale grade 0-5): ≥ 3; EAE development after multiple 500 μg oral feedings (Lewis rats [4]; 500 μg fed at days -14, -7 and 0): complete suppression; EAE development after multiple oral feedings (Lewis rats [4]; fed at days -14, -7 and 0 before immunisation with iso-aspartyl MBP87-99): complete suppression; mean histological score (number of inflammation foci) compared to controls (Lewis rats [4]; multiple oral doses, sixteen days after immunisation, P<0.05): significantly reduced

Source: patent US20030216319A1, “Specific autoimmune reactions against isomerised/optically inverted epitopes: application for treatment of autoimmune diseases” (priority 2000, published 2003)
